# Like-named read-outs stand apart in the source and are kept apart here.
# Tests used:
# IL-1ra [1] = target: T1, IL-1ra (Homo sapiens, UniProt P18510); conditions: for reduction in the rate of aggregation of IL-1ra: 10 mM accessory molecule
# Protocol: The rate of aggregation was determined as the slope of the linear region of the saturation curve calculated using the SoftMax Pro program (Molecular Devices).
# [2] = pH 6.5 and 39° C., estimated from literature-reported pKas
# [3] = target: T2, anion binding site on IL-1ra (Homo sapiens, UniProt P18510); assay: biochemical; conditions: K^dL, Kd of citrate (y-intercept of K^dLapp plot)
# Source text: (§1) After spinning, about half of the solution passed through the filter as filtrate, while the remaining solution remained above the filter as retentate.
# (§2) K^dL is the Kd for ligand binding to protein and is equal to the concentration of P (free protein) times the concentration of L (free ligand), divided by the concentration of PL (protein bound to ligand). K^dX is the Kd for competitive anion binding to protein and is equal to the concentration of P (free protein) times the concentration of X (free competing anion), divided by concentration of PX (protein bound to competing anion).
# (§3) By replacing the (PX) term with (Xfree)(Pfree)/K^dX, which is derived from the equilibrium equation shown above, the expression for K^dLapp can be reduced to: K^dLapp=K^dL[1+(Xfree/K^dX)] Thus, if K^dLapp is plotted versus Xfree, the y-intercept will be equal to K^dL and the slope will be equal to K^dL/K^dX. Rearranging, K^dX will be equal to the y-intercept divided by the slope.
# (§4) The concentration of free protein is calculated to be the total concentration of protein in the sample minus the concentration of bound protein (which is equal to the concentration of bound ligand). […] In other words, Xfree=Xtotal−ΔXbound as Xtotal is increased.
# IL-1ra [4] = target: T1, IL-1ra; assay: Citrate binding to IL-1ra (spin column filtration, HPLC, Scatchard plot)
# IL-1ra [5] = target: T1, IL-1ra; assay: Derivatization of IL-1ra with methyl acetyl phosphate (MAP) in various buffers, reverse-phase HPLC; parameters: additional N-terminal methionine (not a tag proper); host or cells: E. coli (stated for anakinra in the background); conditions: for rate of derivatization of IL-1ra with MAP compared with phosphate buffer: pH 6.3, 6.5, 6.7; for rate of derivatization of IL-1ra with MAP in 20 mM compared with 10 mM buffer: pH 6.5
# Protocol: IL-1ra was derivatized with MAP in the presence of citrate or phosphate as follows. […] The reaction was incubated at 37° C. and 25 μl aliquots were taken using an HPLC autosampler at 0, 45, 90, 135, 180, 225, and 270 minutes. Each aliquot was analyzed by reverse-phase HPLC using an Agilent 110 HPLC equipped with a Jupiter 5u C4 300A reverse-phase HPLC column (4.6×250 mm, Phenomenex, Torrance, Calif.), an on-line UV detector and a temperature-controlled 100-well sample tray set at 37° C. The flow rate was set at 1 ml/min and the column was maintained at a temperature of 50° C. The column was pre-equilibrated for 15 min (flow rate 1 ml/min) with 65% buffer A (0.1% trifluoroacetic acid (TFA) in water) and 35% buffer B (90% acetonitrile, 0.1% TFA in water). After loading, the analytes were eluted using a gradient ramping from 35% to 50% buffer B (90% acetonitrile, 0.1% TFA in water) over 25 minutes.
# The reaction was incubated at 37° C. and 25 μl aliquots were taken using an HPLC autosampler at 0, 45, 90, 135, 180, 225, and 270 minutes. Each aliquot was analyzed by reverse-phase HPLC as described above for derivatization in the presence of citrate.
# The reaction was incubated at 37° C. and 25 μl aliquots were taken using an HPLC autosampler at 0, 45, 90, 135, 180, 225, and 270 minutes. Each aliquot was analyzed by reverse-phase HPLC as described above for derivatization in the presence of citrate. […] Four weakly resolved peaks were identified in this experiment and are indicated on FIG. 15.
# In particular, each chromatogram from FIG. 16A was deconvoluted using PeakFit™ (Systat Software Inc.). The area under the each of the deconvoluted peaks (peaks 1-4) at each time point (0, 45, 90, 135, 180, 225, and 270 minutes) was then integrated. Deconvoluted peaks 1-4 are labeled on FIG. 16B and the integrated area under each one is shown below. […] The integrated area of deconvoluted peak 4 at time points 0, 45, 90, 135, 180 minutes was then plotted against the incubation time of the reaction that produced that peak. The resulting line has a slope of 68.931 hour^−1.
# The rate of derivatization of IL-1ra with MAP was then calculated for various experiments in the presence of various buffers and at various pHs, according to the methods discussed above.
# [6] = target: T2, anion binding site on IL-1ra; conditions: for Kd: read-out: K^dX, Kd for competing anion binding to the anion binding site of IL-1ra, competition with 10 mM citrate, 1 mM IL-1ra, pH 6.5, 70 mM NaCl
# Source text: as §1, §2, §3, §4
# [7] = pH 6.5 and 39° C.; cited from earlier work
# [8] = pH 6.5, 29° C., IL-1ra 140 mg/ml
# T2 sequence (P18510 with tags, fused parts or gaps): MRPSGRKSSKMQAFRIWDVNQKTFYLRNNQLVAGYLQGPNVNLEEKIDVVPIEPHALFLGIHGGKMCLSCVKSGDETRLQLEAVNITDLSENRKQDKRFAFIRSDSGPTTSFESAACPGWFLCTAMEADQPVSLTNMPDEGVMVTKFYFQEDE
# T1 sequence (P18510 with tags, fused parts or gaps): as above
compound,measurement,setting,value
O=C(O)CC(O)(CC(=O)O)C(=O)O [citrate],reduction in the rate of aggregation of IL-1ra,IL-1ra [1]; [8],~90%
same,predicted negative charges,[2],three negative charges
same,Kd,"[3]; phosphate competition experiment, data not shown",5 mM
same,Kd,[3]; pyrophosphate competition experiment,3.89 mM
same,Kd,IL-1ra [4],3.85 mM
same,number of binding sites on IL-1ra (x-intercept of Scatchard plot),"IL-1ra [4]; pH 6.5, 70 mM NaCl",0.94
same,rate of derivatization of IL-1ra with MAP compared with phosphate buffer,IL-1ra [5],slower
same,rate of derivatization of IL-1ra with MAP in 20 mM compared with 10 mM buffer,IL-1ra [5],slower
O=P(O)(O)OP(=O)(O)O [pyrophosphate],reduction in the rate of aggregation of IL-1ra,IL-1ra [1]; [8],~90%
same,"rate of aggregation of IL-1ra with increasing anion concentration, compared with phosphate buffer","IL-1ra [1]; 1 to 125 mM, 29° C.",decreased more rapidly
same,concentration at which the reduction in the rate of aggregation leveled off,IL-1ra [1]; [8],20 mM
same,predicted negative charges,[2],between two and three negative charges
same,"competing with citrate for the citrate binding site on IL-1ra, compared with phosphate","[6]; 0-20 mM competing anion, 10 mM citrate",more effective
same,Kd,[6],2.99 mM
same,"estimated pKa, first ionizable hydrogen",[7],0.83
same,"estimated pKa, fourth ionizable hydrogen",[7],9.46
same,"estimated pKa, second ionizable hydrogen",[7],2.26
same,"estimated pKa, third ionizable hydrogen",[7],6.72
same,rate of derivatization of IL-1ra with MAP compared with phosphate buffer,IL-1ra [5],slower
same,rate of derivatization of IL-1ra with MAP in 20 mM compared with 10 mM buffer,IL-1ra [5],slower
IL-1ra: Purified human recombinant interleukin-1 receptor antagonist having the amino acid sequence of SEQ ID NO: 5 (anakinra),rate of derivatization of IL-1ra with MAP (slope of integrated area of deconvoluted peak 4 versus incubation time),"IL-1ra [5]; 10 mM citrate, pH 6.5, 37° C., time points 0-180 minutes",68.931 h⁻¹
phosphate,reduction in the rate of aggregation of IL-1ra,IL-1ra [1]; [8],~20%
same,predicted negative charges,[2],predominantly one negative charge
same,Kd,[6],12.6 mM
same,"level of derivatization with MAP at all positions except the N-terminal amine, compared with citrate or pyrophosphate","IL-1ra [5]; 10 mM buffer, 270 minutes, 37° C.",greater
same,extent of derivatization of IL-1ra with MAP compared with citrate,"IL-1ra [5]; 10 mM buffer, pH 6.3, 6.5 or 6.7, 5.5 hours",greater extent

# From patent publication US10765747B2 (SWEDISH ORPHAN BIOVITRUM AB (PUBL), priority 2004, dated 2020)
